In this experiment the test system is Pou4f3 positive hair cells in cochlear sensory epithelium from P2 rats. The experiment in a line: Hair cell counts in rat organ of Corti explants. The format is cell-based. Conditions: rat OC explants, 4 days, apex/middle/base. The procedure: OC explants were isolated from postnatal day 2 (P2) Wistar rats, P0-P2 mice (Lgr5-GFP or Atoh1-nGFP mice). Dissection of the cochlea under a stereomicroscope (Nikon SMZ800, Japan) allowed OC separation from stria vascularis and modiolus, and the sensory epithelium was plated with hair cells facing up on Cell-Tak (Corning, United States)-coated transwell-clear inserts (6-well format, 0.4 μm pore, Corning, United States). Dissection medium was exchanged for 1.5 ml full otic medium supplemented with 10% FBS (Invitrogen) and 0.01% Ampicillin (Sigma), added under the insert membrane, maintaining the OC under a thin film of medium during culture at 37°C. 5-ethyl-2′-deoxyuridine (EdU, 5 μM, Life Technologies) was added directly in the medium when indicated. […]
Dividing cells were labeled with, 5-ethyl-2′-deoxyuridine (EdU) and detected with Click-it Plus kit (Life Technologies). […]
Image processing was performed with the open-source image processing software FIJI, version 2.0 ([Schindelin et al., 2012]). Hair cells were quantified by counting Pou4f3 or Myo7a positive cells of the organ of Corti at three random microscopic fields for each cochlear region (base, middle, and apex) covering in total at least 1,200 μm. The number of hair cells (IHCs and OHCs) is expressed as unit per 100 μm. […]

Consider one compound from article PMC8414802, “Hair Cell Generation in Cochlear Culture Models Mediated by Novel γ-Secretase Inhibitors” (Frontiers in Cell and Developmental Biology, 2021).

Molecules are shown by their SMILES.

Take `COc1ccc2c(c1)N1CCC(C)(C)C1=CC(=O)[C@H]2NC(=O)[C@H](C)NC(=O)CCC(F)(F)F` [CPD3]: the “Region of OHC induction” value is reported as “limited to the apical region”.
